The assay deals with T1, N-terminal GST tagged full length human TTK kinase (Homo sapiens, UniProt P33981).
T1 construct: N-terminal GST tagged full length human TTK kinase; GST (N); made in house; host or cells: insect cells
T1 sequence (P33981 1-857): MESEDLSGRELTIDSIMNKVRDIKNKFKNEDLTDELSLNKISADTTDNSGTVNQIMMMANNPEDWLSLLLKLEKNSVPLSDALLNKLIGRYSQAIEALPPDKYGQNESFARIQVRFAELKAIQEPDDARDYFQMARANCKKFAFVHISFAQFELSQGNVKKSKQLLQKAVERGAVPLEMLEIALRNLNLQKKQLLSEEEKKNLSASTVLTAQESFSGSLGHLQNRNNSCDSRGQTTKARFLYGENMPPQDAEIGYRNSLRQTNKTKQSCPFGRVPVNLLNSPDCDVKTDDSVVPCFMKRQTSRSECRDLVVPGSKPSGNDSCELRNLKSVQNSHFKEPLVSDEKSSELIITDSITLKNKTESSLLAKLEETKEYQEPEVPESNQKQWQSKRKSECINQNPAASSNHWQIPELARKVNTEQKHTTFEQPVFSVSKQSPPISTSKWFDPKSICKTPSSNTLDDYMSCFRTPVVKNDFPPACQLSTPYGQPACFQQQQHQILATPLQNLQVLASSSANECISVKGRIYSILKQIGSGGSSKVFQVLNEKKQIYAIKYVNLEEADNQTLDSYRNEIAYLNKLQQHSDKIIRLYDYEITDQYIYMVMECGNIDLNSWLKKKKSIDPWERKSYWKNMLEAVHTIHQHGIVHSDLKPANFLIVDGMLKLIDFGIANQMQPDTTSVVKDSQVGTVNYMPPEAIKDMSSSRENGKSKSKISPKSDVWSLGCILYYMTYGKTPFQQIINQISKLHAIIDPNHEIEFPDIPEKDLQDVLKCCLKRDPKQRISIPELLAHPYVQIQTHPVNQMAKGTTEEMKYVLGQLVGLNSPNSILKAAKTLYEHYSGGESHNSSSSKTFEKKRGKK
In words: In Vitro TTK Kinase Assay 2 (Caliper LabChip LC3000). It is filed as biochemical. The note with it: recombinant TTK, 12 μM ATP, read-out: EAA2: Enzyme Assay Activity (In Vitro TTK kinase assay 2). The protocol: Each reaction was stopped by the addition of EDTA to a concentration of 40 mM in a solution which also comprised 0.1% coating reagent (Caliper LS), 100 mM HEPES pH 7.5, 0.015% v/v Brij™-35 and 5% DMSO. The stopped enzyme reactions were sipped through capillaries onto a Caliper chip where the peptide substrate and phosphorylated product were separated and detected via laser-induced fluorescence.

28 compounds from patent publication US20110118238A1, “2-ANILINOPURIN-8-ONES AS INHIBITORS OF TTK/MPS1 FOR THE TREATMENT OF PROLIFERATIVE DISORDERS” (ASTRAZENECA AB, priority 2007, published 2011) can be followed below.

SMILES strings stand for the structures.

For the compound `Cn1c(=O)n(C2CCCC2)c2nc(Nc3ccc(Oc4ccccc4)cc3)ncc21` [Example 75, 9-Cyclopentyl-7-methyl-2-[(4-phenoxyphenyl)amino]-7,9-dihydro-8H-purin-8-one], the IC50 turned out to be 523 nM.

Consider `COc1cc(C(=O)NC2CCN(C)CC2)ccc1Nc1ncc2c(n1)n(C(C)C)c(=O)n2C` [Example 40, 4-[(9-Isopropyl-7-methyl-8-oxo-8,9-dihydro-7H-purin-2-yl)amino]-3-methoxy-N-(1-methylpiperidin-4-yl)benzamide], for which the IC50 was determined as 338 nM.

Take `COc1cc(C(=O)NCCCn2ccnc2)ccc1Nc1ncc2c(n1)n(C1CCCC1)c(=O)n2C` [Example 52, 4-[(9-Cyclopentyl-7-methyl-8-oxo-8,9-dihydro-7H-purin-2-yl)-amino]-N-[3-(1H-imidazol-1-yl)propyl]-3-methoxybenzamide]: the IC50 amounted to 41.2 nM.

For the compound `COc1cc(C(=O)N(C)C)ccc1Nc1ncc2c(n1)n(C1CCCC1)c(=O)n2C` [Example 65, 4-[(9-Cyclopentyl-7-methyl-8-oxo-8,9-dihydro-7H-purin-2-yl)-amino]-3-methoxy-N,N-dimethylbenzamide], the IC50 amounted to 27 nM.

As to `COc1cc(N2CCN(C)CC2)ccc1Nc1ncc2c(n1)n(C1CCNCC1)c(=O)n2C` [Example 70, 2-{[2-Methoxy-4-(4-methylpiperazin-1-yl)phenyl]amino}-7-methyl-9-piperidin-4-yl-7,9-dihydro-8H-purin-8-one], the IC50 was determined as 5360 nM.

For `COc1cc(C(=O)N[C@@H]2CCNC2)ccc1Nc1ncc2c(n1)n(C1CCCC1)c(=O)n2C` [Example 68, 4-[(9-Cyclopentyl-7-methyl-8-oxo-8,9-dihydro-7H-purin-2-yl)-amino]-3-methoxy-N-[(3R)-pyrrolidin-3-yl]benzamide], the IC50 amounted to 65.3 nM.

Consider `CC(C)Oc1ccc(Nc2ncc3c(n2)n(C2CCCC2)c(=O)n3C)cc1` [Example 74, 9-Cyclopentyl-2-[(4-isopropoxyphenyl)amino]-7-methyl-7,9-dihydro-8H-purin-8-one], for which the IC50 was found to be 29.1 nM.

Take `COCCN1CCC(NC(=O)c2ccc(Nc3ncc4c(n3)n(C3CCCC3)c(=O)n4C)c(OC)c2)CC1` [Example 59, 4-[(9-Cyclopentyl-7-methyl-8-oxo-8,9-dihydro-7H-purin-2-yl)-amino]-3-methoxy-N-[1-(2-methoxyethyl)piperidin-4-yl]benzamide]: the IC50 worked out at 74.5 nM.

Turning to `Cn1c(=O)n(C2CCCC2)c2nc(Nc3ccc(Cc4ccccc4)cc3)ncc21` [Example 78, 2-[(4-Benzylphenyl)amino]-9-cyclopentyl-7-methyl-7,9-dihydro-8H-purin-8-one], the IC50 is 195 nM.

Turning to `COc1cc(C(=O)N[C@H]2CCNC2)ccc1Nc1ncc2c(n1)n(C1CCCC1)c(=O)n2C` [Example 69, 4-[(9-Cyclopentyl-7-methyl-8-oxo-8,9-dihydro-7H-purin-2-yl)-amino]-3-methoxy-N-[(3S)-pyrrolidin-3-yl]benzamide], the IC50 amounted to 41.3 nM.

Regarding `CC(C)n1c(=O)n(C)c2cnc(Nc3ccc(C(=O)NC4CCN(C)CC4)c(F)c3)nc21` [Example 39, 2-Fluoro-4-[(9-isopropyl-7-methyl-8-oxo-8,9-dihydro-7H-purin-2-yl)-amino]-N-(1-methylpiperidin-4-yl)benzamide], the IC50 was 2460 nM.

On to `COc1cc(C(=O)N2CC[C@@H](N(C)C)C2)ccc1Nc1ncc2c(n1)n(C1CCCC1)c(=O)n2C` [Example 55, 9-Cyclopentyl-2-[(4-{[(3R)-3-(dimethylamino)pyrrolidin-1-yl]-carbonyl}-2-methoxyphenyl)amino]-7-methyl-7,9-dihydro-8H-purin-8-one], for which the IC50 is 17.5 nM.

In the case of `COc1cc(C(=O)NCCN2CCCCC2)ccc1Nc1ncc2c(n1)n(C1CCCC1)c(=O)n2C` [Example 63, 4-[(9-Cyclopentyl-7-methyl-8-oxo-8,9-dihydro-7H-purin-2-yl)-amino]-3-methoxy-N-(2-piperidin-1-ylethyl)benzamide], the IC50 worked out at 66.4 nM.

With `Cn1c(=O)n(C2CCCC2)c2nc(Nc3ccc(CCO)cc3)ncc21` [Example 73, 9-Cyclopentyl-2-{[4-(2-hydroxyethyl)phenyl]amino}-7-methyl-7,9-dihydro-8H-purin-8-one], the IC50 came out at 106 nM.

Regarding `COc1cc(N2CCCN(C)CC2)ccc1Nc1ncc2c(n1)n(C(C)C)c(=O)n2C` [Example 48, 9-Isopropyl-2-{[2-methoxy-4-(4-methyl-1,4-diazepan-1-yl)phenyl]-amino}-7-methyl-7,9-dihydro-8H-purin-8-one], the IC50 came out at 136 nM.

In the case of `CCN1CCCC1CNC(=O)c1ccc(Nc2ncc3c(n2)n(C2CCCC2)c(=O)n3C)c(OC)c1` (stereo not shown) [Example 60, 4-[(9-Cyclopentyl-7-methyl-8-oxo-8,9-dihydro-7H-purin-2-yl)-amino]-N-[(1-ethylpyrrolidin-2-yl)methyl]-3-methoxybenzamide], the IC50 stood at 114 nM.

For `Cn1c(=O)n(C2CCCC2)c2nc(Nc3ccc(-c4cnco4)cc3)ncc21` [Example 76, 9-Cyclopentyl-7-methyl-2-{[4-(1,3-oxazol-5-yl)phenyl]amino}-7,9-dihydro-8H-purin-8-one], the IC50 stood at 18.3 nM.

Turning to `CNC(=O)c1ccc(Nc2ncc3c(n2)n(C(C)C)c(=O)n3C)c(OC)c1` [Example 41, 4-[(9-Isopropyl-7-methyl-8-oxo-8,9-dihydro-7H-purin-2-yl)amino]-3-methoxy-N-methylbenzamide], the IC50 was found to be 7130 nM.

In the case of `COc1cc(OC2CCN(C)C2)ccc1Nc1ncc2c(n1)n(C(C)C)c(=O)n2C` (stereo not shown) [Example 43, 9-Isopropyl-2-({2-methoxy-4-[(1-methylpyrrolidin-3-yl)oxy]-phenyl}amino)-7-methyl-7,9-dihydro-8H-purin-8-one], the IC50 turned out to be 115 nM.

Regarding `COc1cc(C(=O)N2CCN(C)CC2)ccc1Nc1ncc2c(n1)n(C1CCCC1)c(=O)n2C` [Example 50, 9-Cyclopentyl-2-({2-methoxy-4-[(4-methylpiperazin-1-yl)carbonyl]-phenyl}amino)-7-methyl-7,9-dihydro-8H-purin-8-one], the IC50 is 60.3 nM.

Regarding `COc1cc(C(=O)N2CCN(C3CCN(C)CC3)CC2)ccc1Nc1ncc2c(n1)n(C1CCCC1)c(=O)n2C` [Example 51, 9-Cyclopentyl-2-[(2-methoxy-4-{[4-(1-methylpiperidin-4-yl)-piperazin-1-yl]-carbonyl}phenyl)amino]-7-methyl-7,9-dihydro-8H-purin-8-one], the IC50 amounted to 148 nM.

Take `COc1cc(C(=O)NCCCCN(C)C)ccc1Nc1ncc2c(n1)n(C1CCCC1)c(=O)n2C` [Example 61, 4-[(9-Cyclopentyl-7-methyl-8-oxo-8,9-dihydro-7H-purin-2-yl)-amino]-N-[4-(dimethylamino)butyl]-3-methoxybenzamide]: the IC50 was determined as 53.6 nM.

Regarding `COc1cc(C(=O)N(C)CC2CCN(C(C)C)C2)ccc1Nc1ncc2c(n1)n(C1CCCC1)c(=O)n2C` (stereo not shown) [Example 53, 4-[(9-Cyclopentyl-7-methyl-8-oxo-8,9-dihydro-7H-purin-2-yl)-amino]-N-[(1-isopropylpyrrolidin-3-yl)methyl]-3-methoxy-N-methylbenzamide], the IC50 worked out at 231 nM.

In the case of `COc1cc(C(=O)N2CCC(N3CCCC3)CC2)ccc1Nc1ncc2c(n1)n(C1CCCC1)c(=O)n2C` [Example 56, 9-Cyclopentyl-2-({2-methoxy-4-[(4-pyrrolidin-1-ylpiperidin-1-yl)-carbonyl]phenyl}amino)-7-methyl-7,9-dihydro-8H-purin-8-one], the IC50 came out at 67.6 nM.

As for `COc1cc(N2CCN(C)CC2)ccc1Nc1ncc2c(n1)n(C(C)C)c(=O)n2C` [Example 44, 9-Isopropyl-2-{[2-methoxy-4-(4-methylpiperazin-1-yl)phenyl]-amino}-7-methyl-7,9-dihydro-8H-purin-8-one], the IC50 turned out to be 119 nM.

For `COc1cc(OC2CCN(C)CC2)ccc1Nc1ncc2c(n1)n(C(C)C)c(=O)n2C` [Example 42, 9-Isopropyl-2-({2-methoxy-4-[(1-methylpiperidin-4-yl)oxy]phenyl}-amino)-7-methyl-7,9-dihydro-8H-purin-8-one], the IC50 is 68.8 nM.

Consider `CCN1CCN(c2ccc(Nc3ncc4c(n3)n(C(C)C)c(=O)n4C)c(OC)c2)CC1` [Example 45, 2-{[4-(4-Ethylpiperazin-1-yl)-2-methoxyphenyl]amino}-9-isopropyl-7-methyl-7,9-dihydro-8H-purin-8-one], for which the IC50 came to 109 nM.

Turning to `CCOc1cc(N2CCN(C)CC2)ccc1Nc1ncc2c(n1)n(C(C)C)c(=O)n2C` [Example 46, 2-{[2-Ethoxy-4-(4-methylpiperazin-1-yl)phenyl]amino}-9-isopropyl-7-methyl-7,9-dihydro-8H-purin-8-one], the IC50 worked out at 144 nM.
